The record followed here is patent US9534016B2, “Netrin loop peptide mimetics and uses thereof” (Buck Institute for Research on Aging, priority 2011, dated 2017).

The experiment deals with ERK phosphorylation associated with APP based cell signaling. The experiment is described as follows: ERK phosphorylation, Western blot, B103 cells co-transfected with APP. The source says:
This effect is not seen with cyclic peptide-2 or cyclic peptide-3. […] Cyclic peptide-1 is APP specific
ERK phosphorylation is associated with cell signaling. […] This assay was based on a western blot analysis.

For C-P-H-F-C [cyclic peptide-2], under “Western blot, APP cells (B103 co-transfected with APP), cyclic peptide-1 at 21 uM”, the ERK phosphorylation entry is reported as “not seen”. Further, the “modulate ERK phosphorylation and/or switch APP processing from aberrant to normal” value (cyclized loop peptides prepared and tested) is recorded as “shown to modulate ERK phosphorylation and/or to switch APP processing from aberrant to normal”.
